Legend:
In vivo MTD in CD-1 mice = conditions: mouse, unit inferred; for MTD at 5 days: 5 daily doses; for MTD: intravenous, single bolus
Experimental: (§1) The Maximum Tolerated Dose is determined in CD-1 and athymic mice (both genders) for each drug after single bolus administration and after 5 dayly doses. The results are given in table IV, there is no significant difference between the compounds 5 methylhexanoic KF and (4S)-methylhexanoic KF.

IGROV-ET = assay: In vitro cytotoxic activity, SRB assay; format: cell-based, human; conditions: 48 hours exposure
Text: (§2) Plates are washed with deionized water and dried.

HELA-APL = assay: In vitro cytotoxic activity, SRB assay; format: cell-based, human; conditions: 48 hours exposure; for CC50: read-out: LC50 (the source's name)
Text: as §2

DU-145 = assay: In vitro cytotoxic activity, SRB assay; format: cell-based, human; conditions: DU-145, 48 hours exposure
Text: as §2

MEL-28 = assay: In vitro cytotoxic activity, SRB assay; format: cell-based, human; conditions: MEL-28, 48 hours exposure
Text: as §2

HT-29 = assay: In vitro cytotoxic activity, SRB assay; format: cell-based, human; conditions: HT-29, 48 hours exposure; for CC50: read-out: LC50 (the source's name)
Text: as §2

PANC-1 = assay: In vitro cytotoxic activity, SRB assay; format: cell-based, human; conditions: PANC-1, 48 hours exposure
Text: as §2

A-549 = assay: In vitro cytotoxic activity, SRB assay; format: cell-based, human; conditions: A-549, 48 hours exposure; for CC50: read-out: LC50 (the source's name)
Text: as §2

LN-caP = assay: In vitro cytotoxic activity, SRB assay; format: cell-based, human; conditions: 48 hours exposure
Text: as §2

K-562 = assay: In vitro cytotoxic activity, SRB assay; format: cell-based, human; conditions: K-562, 48 hours exposure
Text: as §2

LOVO-DOX = assay: In vitro cytotoxic activity, SRB assay; format: cell-based, human; conditions: 48 hours exposure
Text: as §2

SK-BR-3 = assay: In vitro cytotoxic activity, SRB assay; format: cell-based, human; conditions: SK-BR-3, 48 hours exposure; for CC50: read-out: LC50 (the source's name)
Text: as §2

IGROV = assay: In vitro cytotoxic activity, SRB assay; format: cell-based, human; conditions: 48 hours exposure
Text: as §2

LOVO = assay: In vitro cytotoxic activity, SRB assay; format: cell-based, human; conditions: 48 hours exposure
Text: as §2

[1] = In vivo MTD in athymic mice; conditions: mouse; for MTD at 5 days: 5 daily doses; for MTD: intravenous, single bolus
Experimental: as §1

female mice = conditions: cited from earlier work
[2] = test system: AML-12, normal mouse liver cells; assay: In vitro toxicity to normal cells, MTS assay; conditions: read-out: ALM Liver IC50, 24 h
Experimental: (§3) In order to assess the cytotoxicity of the drugs to normal cells, we used 96 well plates plated at a density of 5000 cells per well with normal cell lines maintained as per the directions of the ATCC: AML-12, normal mouse liver cells and NRK-52E, normal rat kidney cell. The cells in each plate were permitted to settle overnight before adding the test drug. To each well (100 μl medium) 10 μl of drug in media was added at varying concentrations (1×10^−10-0.01 mg/ml final concentration) and further incubated overnight at 37° C. with 5% CO2. All experiments were repeated at least 3 times and were assayed in duplicate. After 24 h the MTS assay (CellTiter 96 aqueous) was performed according to the manufacturer's (Promega) directions (for all cell types). Cell viability (mitochondrial activity) is determined via enzymatic conversion of the formazan substrate.

[3] = test system: NRK-52E, normal rat kidney cell; assay: In vitro toxicity to normal cells, MTS assay; format: cell-based; conditions: 24 h
Experimental: as §3

HELA = assay: In vitro cytotoxic activity, SRB assay; conditions: for CC50: read-out: LC50, 48 hours exposure
Experimental: The finality of these assays is to interrupt the growth of a “in vitro” tumor cell culture by means a continued exhibition of the cells to the sample to be testing.
Most of the cell lines are obtained from American Type Culture Collection (ATCC) derived from different human cancer types.
Cells are maintained in RPMI 1640 10% FBS, supplemented with 0.1 g/l penicillin and 0.1 g/l streptomycin sulfate and then incubated at 37° C., 5% CO2 and 98% humidity. For the experiments, cells were harvested from subconfluent cultures using trypsin and resuspended in fresh medium before plating.
Cells are seeded in 96 well microtiter plates, at 5×10^3 cells per well in aliquots of 195 μl medium, and they are allowed to attach to the plate surface by growing in drug free medium for 18 hours. Afterward, samples are added in aliquots of 5 μl in a ranging from 10 to 10^−8 μg/ml, dissolved in DMSO/EtOH/PBS (0.5:0.5:99). After 48 hours exposure, the antitumor effect are measured by the SRB methodology: cells are fixed by adding 50 μl of cold 50% (wt/vol) trichloroacetic acid (TCA) and incubating for 60 minutes at 4° C. Plates are washed with deionized water and dried. One hundred μl of SRB solution (0.4% wt/vol in 1% acetic acid) is added to each microtiter well and incubated for 10 minutes at room temperature. Unbound SRB is removed by washing with 1% acetic acid. Plates are air dried and bound stain is solubilized with Tris buffer. Optical densities are read on a automated spectrophotometric plate reader at a single wavelength of 490 nm.
The values for mean +/− SD of data from triplicate wells are calculated. Some parameters for cellular responses can be calculated: GI=growth inhibition, TGI=total growth inhibition (cytostatic effect) and LC=cell killing (cytotoxic effect).

[4] = female CD-1 mice, read-out: Female CD-1 mice MTD 5DD
[5] = female CD-1 mice, read-out: Female CD-1 mice MTD Bolus
[6] = male CD-1 mice, read-out: Male CD-1 mice MTD Bolus
[7] = male CD-1 mice, read-out: Male CD-1 mice MTD 5DD
[8] = female athymic mice, no unit printed in table (325 μg/kg/day), read-out: Female athymic mice MTD 5DD
[9] = female athymic mice, unit inferred, read-out: Female athymic mice MTD Bolus
[10] = male athymic mice, unit inferred, read-out: Male athymic mice MTD Bolus
[11] = male athymic mice, unit inferred, read-out: Male athymic mice MTD 5DD

## C/C=C1\NC(=O)[C@H](Cc2ccccc2)NC(=O)[C@@H](C(C)C)NC(=O)[C@@H]([C@@H](C)CC)NC(=O)[C@H](NC(=O)[C@H](NC(=O)[C@H](CCCN)NC(=O)[C@H]2CCCN2C(=O)[C@H](NC(=O)[C@@H](NC(=O)[C@@H](NC(=O)[C@H](NC(=O)CCCC(C)C)C(C)C)[C@@H](C)O)C(C)C)C(C)C)[C@@H](C)CC)[C@@H](C)OC(=O)[C@H](C(C)C)NC1=O [5-methylhexanoic KF, reference compound]
In vivo MTD in CD-1 mice; [4]
  MTD at 5 days: 0.175 to 0.35 mg/kg
In vivo MTD in CD-1 mice; [5]
  MTD: 0.2 mg/kg
In vivo MTD in CD-1 mice; [6]
  MTD: 0.3 mg/kg
In vivo MTD in CD-1 mice; [7]
  MTD at 5 days: 0.175 to 0.35 mg/kg
IGROV-ET
  GI50: 447 nM
  LC50: 3090 nM
HELA-APL
  GI50: 1060 nM
  CC50: 4430 nM
DU-145
  GI50: 751 nM
  LC50: 3600 nM
MEL-28
  GI50: 690 nM
  LC50: 3550 nM
HT-29
  GI50: 141 nM
  CC50: 562 nM
PANC-1
  GI50: 1380 nM
  LC50: 6070 nM
A-549
  GI50: 866 nM
  CC50: 3780 nM
LN-caP
  GI50: 961 nM
  LC50 (50% lethal concentration): 5570 nM
K-562
  GI50: 1540 nM
  LC50 (50% lethal concentration): 5660 nM
LOVO-DOX
  GI50: 162 nM
  LC50: 620 nM
SK-BR-3
  GI50: 398 nM
  CC50: 6770 nM
IGROV
  GI50: 420 nM
  LC50: 3800 nM
LOVO
  GI50: 120 nM
  LC50 (50% lethal concentration): 428 nM
[1]; [8]
  MTD at 5 days: 0.325 mg/kg
[1]; [9]
  MTD: 0.325 mg/kg
[1]; [10]
  MTD: 0.35 mg/kg
[1]; [11]
  MTD at 5 days: 0.35 mg/kg
Female mice; 280 μg/kg, once daily times five schedule
  tolerability of repeated administration: without any apparent evidence of acute toxicity
Female mice; female mice, single bolus iv injection
  maximum tolerated dose (MTD): 0.28 mg/kg
[2]
  IC50: 3400 nM
[3]
  IC50: 2700 nM
HELA; 48 hours exposure
  GI50: 839 nM
HELA
  CC50: 4260 nM

## C/C=C1\NC(=O)[C@H](Cc2ccccc2)NC(=O)[C@@H](C(C)C)NC(=O)[C@@H]([C@@H](C)CC)NC(=O)[C@H](NC(=O)[C@H](NC(=O)[C@H](CCCN)NC(=O)[C@H]2CCCN2C(=O)[C@H](NC(=O)[C@@H](NC(=O)[C@@H](NC(=O)[C@H](NC(=O)CC[C@H](C)CC)C(C)C)[C@@H](C)O)C(C)C)C(C)C)[C@@H](C)CC)[C@@H](C)OC(=O)[C@H](C(C)C)NC1=O [(4R)-methylhexanoic KF]
IGROV-ET
  GI50: 805 nM
  LC50: 3260 nM
  TGI: 1.62E−06 Molar
HELA-APL
  GI50: 1560 nM
  TGI: 3.47E−06 Molar
  CC50: 6770 nM
DU-145
  GI50: 1200 nM
  LC50: 3820 nM
  TGI: 2.14E−06 Molar
MEL-28
  GI50: 1140 nM
  LC50: 3800 nM
  TGI: 2.09E−06 Molar
HT-29
  GI50: 738 nM
  TGI: 1.54E−06 Molar
  CC50: 3220 nM
PANC-1
  GI50: 4700 nM
  LC50: 4240 nM
  TGI: 4.24E−06 Molar
A-549
  GI50: 1200 nM
  TGI: 2.26E−06 Molar
  CC50: 4240 nM
LN-caP
  GI50: 1500 nM
  LC50 (50% lethal concentration): 4040 nM
  TGI: 2.46E−06 Molar
K-562
  GI50: 3730 nM
  LC50 (50% lethal concentration): 6770 nM
  TGI: 6.77E−06 Molar
LOVO-DOX
  GI50: 288 nM
  LC50: 2190 nM
  TGI: 7.71E−07 Molar
SK-BR-3
  GI50: 1250 nM
  TGI: 2.20E−06 Molar
  CC50: 3860 nM
IGROV
  GI50: 941 nM
  LC50: 3500 nM
  TGI: 1.81E−06 Molar
LOVO
  GI50: 248 nM
  LC50 (50% lethal concentration): 2280 nM
  TGI: 7.78E−07 Molar
HELA; 48 hours exposure
  GI50: 1050 nM
  TGI: 1.93E−06 Molar
HELA
  CC50: 3550 nM

## C/C=C1\NC(=O)[C@H](Cc2ccccc2)NC(=O)[C@@H](C(C)C)NC(=O)[C@@H]([C@@H](C)CC)NC(=O)[C@H](NC(=O)[C@H](NC(=O)[C@H](CCCN)NC(=O)[C@H]2CCCN2C(=O)[C@H](NC(=O)[C@@H](NC(=O)[C@@H](NC(=O)[C@H](NC(=O)CC[C@@H](C)CC)C(C)C)[C@@H](C)O)C(C)C)C(C)C)[C@@H](C)CC)[C@@H](C)OC(=O)[C@H](C(C)C)NC1=O [(4S)-methylhexanoic KF, 4(S)-MeHex-D-Val-L-Thr-L-VaI-D-Val-D-Pro-L-Orn-D-allo-Ile-cyclo(D-allo-Thr-D-allo-Ile-D-Val-L-Phe-Z-Dhb-L-Val)]
In vivo MTD in CD-1 mice; [4]
  MTD at 5 days: 0.175 to 0.35 mg/kg
In vivo MTD in CD-1 mice; [5]
  MTD: 0.2 mg/kg
In vivo MTD in CD-1 mice; [6]
  MTD: 0.3 mg/kg
In vivo MTD in CD-1 mice; [7]
  MTD at 5 days: 0.175 to 0.35 mg/kg
IGROV-ET
  GI50: 225 nM
  LC50: 2820 nM
HELA-APL
  GI50: 1040 nM
  CC50: 4390 nM
DU-145
  GI50: 237 nM
  LC50: 2490 nM
MEL-28
  GI50: 1430 nM
  LC50: 4720 nM
HT-29
  GI50: 301 nM
  CC50: 2710 nM
PANC-1
  GI50: 6770 nM
  LC50: 6770 nM
A-549
  GI50: 267 nM
  CC50: 3090 nM
LN-caP
  GI50: 1120 nM
  LC50 (50% lethal concentration): 5930 nM
K-562
  GI50: 2520 nM
  LC50 (50% lethal concentration): 6770 nM
LOVO-DOX
  GI50: 157 nM
  LC50: 677 nM
SK-BR-3
  GI50: 181 nM
  CC50: 606 nM
IGROV
  GI50: 292 nM
  LC50: 2620 nM
LOVO
  GI50: 163 nM
  LC50 (50% lethal concentration): 580 nM
[1]; [8]
  MTD at 5 days: 0.325 mg/kg
[1]; [9]
  MTD: 0.325 mg/kg
[1]; [10]
  MTD: 0.35 mg/kg
[1]; [11]
  MTD at 5 days: 0.35 mg/kg
[2]
  IC50: 5400 nM
[3]
  IC50: 2700 nM
HELA; 48 hours exposure
  GI50: 1180 nM
HELA
  CC50: 4970 nM
